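Assay format: 96-well plates, 48-hour exposure. TGI: total growth inhibition.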 Where only a bound is given, the exact number is not on record here.

Some test systems named below: A498 renal; CAKI-1 renal; HL-60(TB) leukemia; HOP-62 NSCLC; MDA-MB-231 breast; NCI/ADR-RES ovarian; SF-268 CNS; SK-MEL-28 melanoma; T-47D breast; UACC-62 melanoma.
Test in all cases: inhibition of tumour cell growth, NCI panel, 48 h

Turning to `CC(=O)OCC1OC(Nn2c(=O)[nH]c3ccccc3c2=O)C(OC(C)=O)C(OC(C)=O)C1OC(C)=O` (centres undefined), the TGI with A498 renal, with CAKI-1 renal, in the assay with HL-60(TB) leukemia, with HOP-62 NSCLC, in the assay on MDA-MB-231 breast and with NCI/ADR-RES ovarian was greater than 100 µM each time. Moreover, the TGI in the assay on SF-268 CNS, with SK-MEL-28 melanoma, with T-47D breast and in the assay on UACC-62 melanoma was greater than 100 µM in each case.
With `N#Cc1c(-c2ccc(Cl)cc2)[nH]c(=O)n(C2OC(CO)C(O)C(O)C2O)c1=O` (centres undefined), the TGI with A498 renal, with CAKI-1 renal, with HL-60(TB) leukemia, in the assay on HOP-62 NSCLC, in the assay on MDA-MB-231 breast and in the assay on NCI/ADR-RES ovarian was greater than 100 µM each time. For the same molecule, the TGI in the assay with SF-268 CNS, in the assay with SK-MEL-28 melanoma, with T-47D breast and in the assay with UACC-62 melanoma was greater than 100 µM each time.
`CCOC(=O)c1cc2/c(=C\c3ccc(N(C)C)cc3)c3ccccc3n2[n+]1C`: the TGI in the assay with A498 renal is 27.7 µM; in the assay with CAKI-1 renal, 15.3 µM; with HL-60(TB) leukemia it was 2.37 µM; in the assay with MDA-MB-231 breast, 18.9 µM; in the assay on NCI/ADR-RES ovarian, greater than 100 µM; in the assay with SF-268 CNS, 19.7 µM. For the same molecule, the TGI in the assay on SK-MEL-28 melanoma was found to be 14 µM; with T-47D breast, 24.6 µM; in the assay with UACC-62 melanoma it was 14.2 µM.
Take `CC(C)[C@H](NC(=O)[C@H](N)Cc1ccc(N(CCCl)CCCl)cc1)C(=O)O`: the TGI with A498 renal, in the assay with CAKI-1 renal, with HL-60(TB) leukemia, in the assay with HOP-62 NSCLC, in the assay on MDA-MB-231 breast and in the assay on NCI/ADR-RES ovarian was greater than 100 µM each time. For the same molecule, the TGI with SF-268 CNS, in the assay with SK-MEL-28 melanoma, with T-47D breast and in the assay with UACC-62 melanoma was greater than 100 µM in each case.
Turning to `O=C1CSC(c2ccccc2[N+](=O)[O-])N1c1ccc(-c2ccc(-n3c(-c4ccccc4)nc4ccccc4c3=O)cc2)cc1` (centres undefined), the TGI in the assay on A498 renal, with CAKI-1 renal, in the assay with HL-60(TB) leukemia, in the assay on HOP-62 NSCLC, in the assay on MDA-MB-231 breast and with NCI/ADR-RES ovarian was greater than 100 µM each time. The TGI in the assay with SF-268 CNS, in the assay with SK-MEL-28 melanoma, with T-47D breast and in the assay with UACC-62 melanoma was greater than 100 µM in each case.
Regarding `O=c1ccn(COC(COCc2ccccc2)COCc2ccccc2)c(=O)[nH]1`, the TGI in the assay on A498 renal, in the assay on CAKI-1 renal, in the assay with HL-60(TB) leukemia, in the assay on HOP-62 NSCLC, with MDA-MB-231 breast and in the assay on NCI/ADR-RES ovarian was greater than 100 µM throughout. The TGI with SK-MEL-28 melanoma, in the assay with T-47D breast and with UACC-62 melanoma was greater than 100 µM each time.
In the case of `CC1SCc2nc3ccccc3n21` (centres undefined), the TGI in the assay with A498 renal, with CAKI-1 renal, in the assay on HL-60(TB) leukemia, with HOP-62 NSCLC, with MDA-MB-231 breast and in the assay on NCI/ADR-RES ovarian was greater than 100 µM each time. Besides, the TGI with SF-268 CNS, with SK-MEL-28 melanoma, in the assay with T-47D breast and with UACC-62 melanoma was greater than 100 µM throughout.
As to `COc1ccccc1C1ON=C(c2ccc([N+](=O)[O-])cc2)N1C12CC3CC(CC(C3)C1)C2` (centres undefined), the TGI is greater than 100 µM in the assay on A498 renal; greater than 100 µM with CAKI-1 renal; 42.5 µM in the assay on HL-60(TB) leukemia; 71.9 µM with HOP-62 NSCLC; greater than 100 µM with MDA-MB-231 breast; greater than 100 µM in the assay on NCI/ADR-RES ovarian. For the same molecule, the TGI with SF-268 CNS, in the assay with SK-MEL-28 melanoma, with T-47D breast and with UACC-62 melanoma was greater than 100 µM each time.
For the molecule `CN1C(=O)C2(C=CC(O)CC2)c2ccccc21` (centres undefined), the TGI in the assay on A498 renal, with CAKI-1 renal, with HL-60(TB) leukemia, with HOP-62 NSCLC, in the assay on MDA-MB-231 breast and with NCI/ADR-RES ovarian was greater than 100 µM in each case. The TGI with SF-268 CNS, with SK-MEL-28 melanoma, in the assay with T-47D breast and in the assay with UACC-62 melanoma was greater than 100 µM each time.
As for `COC(=O)C1(C#N)C(C)(C)N=C(c2ccccc2)C12CCCCC2` (centres undefined), the TGI in the assay with A498 renal, with CAKI-1 renal, in the assay on HL-60(TB) leukemia, with HOP-62 NSCLC, with MDA-MB-231 breast and with NCI/ADR-RES ovarian was greater than 100 µM throughout. For the same molecule, the TGI in the assay with SF-268 CNS, with SK-MEL-28 melanoma, in the assay on T-47D breast and in the assay with UACC-62 melanoma was greater than 100 µM in each case.
Take `O=C1C(=O)N(c2cccc(C(F)(F)F)c2)C(=S)N1c1ccccc1`: the TGI with A498 renal is 59.5 µM; in the assay on CAKI-1 renal it was 79.4 µM; with HL-60(TB) leukemia, 84.5 µM; with HOP-62 NSCLC it was greater than 100 µM; with MDA-MB-231 breast, 57.2 µM; in the assay with NCI/ADR-RES ovarian, greater than 100 µM. Besides, the TGI is greater than 100 µM with SF-268 CNS, 88.8 µM with SK-MEL-28 melanoma, greater than 100 µM in the assay with T-47D breast and 31.3 µM in the assay on UACC-62 melanoma.
In the case of `N#CC(=N)c1ncn(-c2ccc(N)cc2)c1N`, the TGI with A498 renal, with CAKI-1 renal, in the assay on HL-60(TB) leukemia, in the assay with HOP-62 NSCLC, in the assay on MDA-MB-231 breast and with NCI/ADR-RES ovarian was greater than 100 µM in each case. Besides, the TGI with SF-268 CNS, in the assay on SK-MEL-28 melanoma, in the assay on T-47D breast and with UACC-62 melanoma was greater than 100 µM throughout.
As for `COc1cc(C2c3cc4c(cc3OC(NNS(=O)(=O)c3ccc(C)cc3)C2C)OCO4)cc(OC)c1O` (centres undefined), the TGI amounted to 25.2 µM in the assay on A498 renal; 32.8 µM with CAKI-1 renal; 35.4 µM in the assay with HL-60(TB) leukemia; 39.4 µM with HOP-62 NSCLC; 57.5 µM in the assay on MDA-MB-231 breast; 45.1 µM in the assay on NCI/ADR-RES ovarian. In addition, the TGI was greater than 100 µM in the assay with SF-268 CNS, greater than 100 µM in the assay on SK-MEL-28 melanoma, greater than 100 µM with T-47D breast and 40.9 µM with UACC-62 melanoma.
Regarding `N#Cc1c(N2CCC(O)C2)c2ccccc2n2c1nc1ccccc12` (centres undefined), the TGI in the assay with A498 renal was 95.5 µM; in the assay on CAKI-1 renal, greater than 100 µM; with HL-60(TB) leukemia it was greater than 100 µM; with HOP-62 NSCLC, 46.6 µM; in the assay with MDA-MB-231 breast it was 60.1 µM; in the assay on NCI/ADR-RES ovarian, greater than 100 µM. Also, the TGI with SF-268 CNS, in the assay on SK-MEL-28 melanoma, in the assay on T-47D breast and with UACC-62 melanoma was greater than 100 µM throughout.
As to `C/C=C(\C)C(O)C(C)C(O)C/C=C(C)/C=C(\C)C/C(C)=C/C/C=C(\C)C(O)C(C)c1ccc(CCC)c(=O)o1` (centres undefined), the TGI in the assay on A498 renal was 50.6 µM; in the assay on CAKI-1 renal, 31.8 µM; with HL-60(TB) leukemia, greater than 100 µM; with HOP-62 NSCLC, 30.4 µM; with MDA-MB-231 breast, 26.4 µM; with NCI/ADR-RES ovarian it was 29.7 µM. Also, the TGI in the assay with SF-268 CNS is 37.5 µM; in the assay with SK-MEL-28 melanoma, 32.3 µM; in the assay with T-47D breast, 65.4 µM; with UACC-62 melanoma it was 26.1 µM.
For the molecule `CS(=O)(=O)c1ccc(N=C/C=C/Nc2ccc(S(C)(=O)=O)cc2)cc1`, the TGI in the assay on A498 renal, in the assay with CAKI-1 renal, in the assay with HL-60(TB) leukemia, with HOP-62 NSCLC, in the assay on MDA-MB-231 breast and in the assay on NCI/ADR-RES ovarian was greater than 100 µM in each case. In addition, the TGI with SF-268 CNS, with SK-MEL-28 melanoma, in the assay on T-47D breast and with UACC-62 melanoma was greater than 100 µM in each case.
Turning to `CCCCCCCCCCCCCCCCCCNC(=S)/N=C\C1=C(O)c2ccccc2C1=O`, the TGI in the assay on A498 renal is 40 µM; in the assay with CAKI-1 renal, 31.2 µM; with HL-60(TB) leukemia, greater than 100 µM; with HOP-62 NSCLC, 22.2 µM; in the assay with MDA-MB-231 breast it was 24.6 µM; with NCI/ADR-RES ovarian, 31.7 µM. Besides, the TGI was 22.1 µM in the assay with SF-268 CNS, 30.7 µM in the assay on SK-MEL-28 melanoma and 37.2 µM with T-47D breast.
As for `S=C1CCSc2c(ccc3ccccc23)N1`, the TGI in the assay with CAKI-1 renal, in the assay on HL-60(TB) leukemia, in the assay on HOP-62 NSCLC, in the assay on MDA-MB-231 breast, in the assay on NCI/ADR-RES ovarian and with SF-268 CNS was greater than 100 µM throughout. The TGI with SK-MEL-28 melanoma, with T-47D breast and with UACC-62 melanoma was greater than 100 µM in each case.
Regarding `CCOC(=O)C(Cc1ccc(OC(=O)c2ccc(OC)cc2)cc1)NC(=O)C(F)(F)F` (centres undefined), the TGI in the assay on A498 renal, in the assay with CAKI-1 renal, in the assay with HL-60(TB) leukemia, in the assay with HOP-62 NSCLC, in the assay with MDA-MB-231 breast and in the assay with NCI/ADR-RES ovarian was greater than 100 µM throughout. The TGI in the assay with SF-268 CNS, in the assay on T-47D breast and in the assay on UACC-62 melanoma was greater than 100 µM in each case.
As for `CC(=O)Nc1c(C)cc2c(nc3n2CCC3OC(C)=O)c1[N+](=O)[O-]` (centres undefined), the TGI with A498 renal, in the assay with CAKI-1 renal, in the assay on HL-60(TB) leukemia, with MDA-MB-231 breast, with NCI/ADR-RES ovarian and with SF-268 CNS was greater than 100 µM throughout. Besides, the TGI with SK-MEL-28 melanoma, in the assay on T-47D breast and in the assay on UACC-62 melanoma was greater than 100 µM throughout.

Source of the values: PubChem BioAssay (NCI).
